Measured values reported in publication PMC6199744, “Development of Chemical Proteomics for the Folateome and Analysis of the Kinetoplastid Folateome” (ACS Infectious Diseases, 2018).
Where two headings read alike, the source gives them in different places.

Assays:
Format in all cases: binding
[1] = target: T1, HeLa cell extract proteins (Homo sapiens, UniProt Q9NTG7)
T1 construct: endogenous in cells; host or cells: HeLa cell extract
T1 sequence (Q9NTG7 1-399): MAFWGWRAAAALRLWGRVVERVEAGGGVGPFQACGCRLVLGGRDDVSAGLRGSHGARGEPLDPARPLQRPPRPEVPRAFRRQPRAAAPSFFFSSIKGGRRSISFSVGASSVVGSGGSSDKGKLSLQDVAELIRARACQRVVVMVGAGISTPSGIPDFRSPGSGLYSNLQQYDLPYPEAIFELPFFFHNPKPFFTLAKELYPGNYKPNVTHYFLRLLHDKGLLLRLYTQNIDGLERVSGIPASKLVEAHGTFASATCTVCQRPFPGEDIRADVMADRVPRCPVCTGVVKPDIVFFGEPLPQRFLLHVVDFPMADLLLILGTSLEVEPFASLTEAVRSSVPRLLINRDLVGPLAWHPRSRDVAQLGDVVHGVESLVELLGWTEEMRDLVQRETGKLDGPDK

[2] = target: T2, HeLa cell extract proteins (Homo sapiens, UniProt P56192)
T2 construct: endogenous in cells; host or cells: HeLa cell extract
T2 sequence (P56192 1-900): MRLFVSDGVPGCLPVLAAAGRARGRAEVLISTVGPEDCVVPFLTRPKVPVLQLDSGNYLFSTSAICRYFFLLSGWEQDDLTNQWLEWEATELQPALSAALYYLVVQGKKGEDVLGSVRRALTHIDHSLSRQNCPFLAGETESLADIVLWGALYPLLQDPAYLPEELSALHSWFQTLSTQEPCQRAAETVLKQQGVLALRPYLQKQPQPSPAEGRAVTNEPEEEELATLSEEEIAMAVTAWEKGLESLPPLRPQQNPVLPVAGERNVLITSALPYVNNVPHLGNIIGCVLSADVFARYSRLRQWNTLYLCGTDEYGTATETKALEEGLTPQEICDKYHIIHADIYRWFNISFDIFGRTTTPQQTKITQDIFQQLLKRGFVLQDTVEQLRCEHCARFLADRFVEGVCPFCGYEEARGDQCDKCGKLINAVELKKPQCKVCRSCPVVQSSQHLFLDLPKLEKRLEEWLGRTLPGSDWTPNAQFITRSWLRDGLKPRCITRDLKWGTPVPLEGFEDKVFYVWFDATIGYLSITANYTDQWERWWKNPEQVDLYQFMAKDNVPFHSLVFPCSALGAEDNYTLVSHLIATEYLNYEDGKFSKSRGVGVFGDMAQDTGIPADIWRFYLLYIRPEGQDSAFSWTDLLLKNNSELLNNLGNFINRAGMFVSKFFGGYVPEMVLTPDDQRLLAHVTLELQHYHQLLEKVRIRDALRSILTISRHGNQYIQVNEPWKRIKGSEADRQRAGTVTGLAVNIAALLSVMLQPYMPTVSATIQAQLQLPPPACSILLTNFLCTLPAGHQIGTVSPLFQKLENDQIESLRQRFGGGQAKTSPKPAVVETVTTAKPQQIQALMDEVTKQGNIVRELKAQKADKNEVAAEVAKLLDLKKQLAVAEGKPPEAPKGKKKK

[3] = target: T3, HeLa cell extract proteins (Homo sapiens, UniProt P62195)
T3 construct: endogenous in cells; host or cells: HeLa cell extract

[4] = target: T4, HeLa cell extract proteins (Homo sapiens, UniProt Q92734)
T4 construct: endogenous in cells; host or cells: HeLa cell extract

[5] = target: T5, HeLa cell extract proteins (Homo sapiens, UniProt Q9UII2)
T5 construct: endogenous in cells; host or cells: HeLa cell extract
T5 sequence (Q9UII2 26-106): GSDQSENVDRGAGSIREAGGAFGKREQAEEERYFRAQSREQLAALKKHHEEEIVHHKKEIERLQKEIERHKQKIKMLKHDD

T4 sequence (Q92734 whole entry): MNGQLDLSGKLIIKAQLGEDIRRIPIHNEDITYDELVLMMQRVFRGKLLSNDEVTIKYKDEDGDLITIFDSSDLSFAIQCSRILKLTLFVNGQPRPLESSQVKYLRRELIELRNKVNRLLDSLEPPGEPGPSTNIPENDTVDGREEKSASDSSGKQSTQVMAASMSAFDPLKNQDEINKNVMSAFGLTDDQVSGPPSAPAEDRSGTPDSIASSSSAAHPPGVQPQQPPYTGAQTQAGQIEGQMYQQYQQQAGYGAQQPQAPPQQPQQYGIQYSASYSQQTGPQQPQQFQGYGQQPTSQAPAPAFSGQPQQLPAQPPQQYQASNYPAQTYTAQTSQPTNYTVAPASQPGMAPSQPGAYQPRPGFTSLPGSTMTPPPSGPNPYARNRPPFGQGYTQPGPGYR
T3 sequence (P62195 whole entry): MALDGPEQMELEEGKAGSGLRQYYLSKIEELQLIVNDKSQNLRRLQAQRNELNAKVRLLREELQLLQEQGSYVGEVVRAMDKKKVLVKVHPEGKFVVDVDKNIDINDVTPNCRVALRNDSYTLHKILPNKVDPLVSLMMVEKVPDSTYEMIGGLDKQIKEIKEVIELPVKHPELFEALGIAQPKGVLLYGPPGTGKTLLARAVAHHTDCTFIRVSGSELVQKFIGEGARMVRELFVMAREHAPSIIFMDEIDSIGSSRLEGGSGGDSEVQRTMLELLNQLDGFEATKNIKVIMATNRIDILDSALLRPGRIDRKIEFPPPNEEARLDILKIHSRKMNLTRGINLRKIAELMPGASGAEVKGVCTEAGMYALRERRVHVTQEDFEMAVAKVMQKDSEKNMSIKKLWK

## Nc1nc2cccc(-c3ccccc3)c2n1Cc1ccc(Cl)c(Cl)c1 [compound 3]
[1]; protein SIRT3, HeLa
  fold changes relative to vehicle control: 1.16
[2]; captured protein MARS, HeLa
  fold changes relative to vehicle control: 0.93
[3]; protein PSMC5, HeLa
  fold changes relative to vehicle control: 1.05
[4]; protein TFG, HeLa
  fold changes relative to vehicle control: 1.02
[5]; protein ATPIF1, HeLa
  fold changes relative to vehicle control: 0.91

## Nc1nc2[nH]cc(CCc3ccc(C(=O)N[C@@H](CCC(=O)O)C(=O)O)cc3)c2c(=O)[nH]1 [PTX, pemetrexed]
[1]
  fold changes relative to vehicle control: 0.95
[2]
  fold changes relative to vehicle control: 0.93
[3]
  fold changes relative to vehicle control: 1.03
[4]
  fold changes relative to vehicle control: 1.05
[5]
  fold changes relative to vehicle control: 1.84

## Nc1nc2c(c(=O)[nH]1)N(C=O)C(CNc1ccc(C(=O)N[C@@H](CCC(=O)O)C(=O)O)cc1)CN2 (some centres unmarked) [LEU, leucovorin]
[1]; HeLa, captured protein SIRT3
  fold changes relative to vehicle control: 1
[2]; HeLa, captured protein MARS
  fold changes relative to vehicle control: 0.92
[3]; HeLa, protein PSMC5
  fold changes relative to vehicle control: 1.02
[4]; HeLa, captured protein TFG
  fold changes relative to vehicle control: 1.01
[5]; HeLa, protein ATPIF1
  fold changes relative to vehicle control: 1

## CCCCCCOc1cccc(Cc2cnc(N)nc2N)c1 [compound 2]
[1]; protein SIRT3, HeLa
  fold changes relative to vehicle control: 1
[2]; captured protein MARS, HeLa
  fold changes relative to vehicle control: 1.07
[3]; protein PSMC5, HeLa
  fold changes relative to vehicle control: 1.36
[4]; protein TFG, HeLa
  fold changes relative to vehicle control: 1.16
[5]; protein ATPIF1, HeLa
  fold changes relative to vehicle control: 1.32

## NCCOCCOCC(=O)Nc1nc2ncc(CNc3ccc(C(=O)NC(CCC(=O)O)C(=O)O)cc3)nc2c(=O)[nH]1 (centres unmarked) [compound 6]
[1]; HeLa, captured protein SIRT3
  fold changes relative to vehicle control: 0.77
[2]; HeLa, captured protein MARS
  fold changes relative to vehicle control: 1.01
[3]; HeLa, protein PSMC5
  fold changes relative to vehicle control: 1.12
[4]; HeLa, captured protein TFG
  fold changes relative to vehicle control: 1.01
[5]; HeLa, protein ATPIF1
  fold changes relative to vehicle control: 1.91

## CCCCCCOc1ccc(Cc2cnc(N)nc2N)cc1 [compound 1]
[1]; protein SIRT3, HeLa
  fold changes relative to vehicle control: 1
[2]; captured protein MARS, HeLa
  fold changes relative to vehicle control: 0.74
[3]; protein PSMC5, HeLa
  fold changes relative to vehicle control: 1.07
[4]; protein TFG, HeLa
  fold changes relative to vehicle control: 0.96
[5]; protein ATPIF1, HeLa
  fold changes relative to vehicle control: 0.97

## NCCCNc1ccc(C(=O)NC(CCC(=O)O)C(=O)O)cc1 (centres unmarked) [compound 7]
[1]; HeLa, captured protein SIRT3
  fold changes relative to vehicle control: 0.92
[2]; HeLa, captured protein MARS
  fold changes relative to vehicle control: 0.94
[3]; HeLa, protein PSMC5
  fold changes relative to vehicle control: 1.04
[4]; HeLa, captured protein TFG
  fold changes relative to vehicle control: 1.06
[5]; HeLa, protein ATPIF1
  fold changes relative to vehicle control: 1.41
